Non-standard residues stand in square brackets, D forms with d. Residues, ends and D or L forms follow the SMILES beside them. Hyp = O=C(O)[C@@H]1C[C@@H](O)CN1
What was measured:
[1] = Method for predicting global Tm of collagen peptides from amino acid sequence; conditions: observed minus predicted, peptides of Table 3
Method: The global thermal stability of homotrimeric triple helical peptides with length of at least 6 tripeptide units and, in most cases, containing 10 tripeptide units was determined as follows.
For the total number of triplets n in a given peptide, the base Tm^0(n) for (Pro-Hyp-Gly) or (Pro-Pro-Gly)n was calculated from the length dependence (Equation 1), including any effect of blocking groups;
The melting temperature value was decreased for every triplet in the sequence that was not Gly-Pro-Hyp, subtracting a value of ΔTm^GXY (Table 1). The N-terminal and C-terminal tripeptide units were excluded from the calculation due to the staggering of the chains and the disorder for the peptide ends (Bella et al. (1994) supra; Li, et al. (1993) Biochemistry 32:7377-7387; Kramer, et al. (2001) J. Mol. Biol. 301:1191-1205).
The resulting value for the peptide melting temperature was adjusted using the ΔTm^int values for interactions between neighboring tripeptides (Table 2).
The method was formulated as follows.
To extrapolate the dependence of the Tm of the host peptides on peptide length, the experimental values for (Pro-Hyp-Gly)n and (Pro-Pro-Gly)n versus n, where n is the number of tripeptide units, were fit to the exponential decay function
[formula] where Tm^0(n) is defined as the base thermal stability of the repeating polytripeptide standard, Tm^max is the maximum melting temperature, and the constant n0 represents the length of the repeating peptide with Tm=0.

[2] = for Tm^obs: peptide of Table 3, defined standard conditions
In short: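 Host-guest peptides in Gly-Xaa1-Hyp or Gly-Pro-Xaa2 contexts were melted at 1 mg/ml in PBS, pH 7.0. The heating rate averaged 0.1° C./minute, and residue propensity was derived from the Tm values.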

[3] = Predicted Tm of guest triplets/hexapeptides by additivity of Xaa1 and Xaa2 residues (Equation 1); conditions: host-guest collagen-like peptides
Method: A complete table of the stability for all Gly-Xaa1-Xaa2 triplets was constructed using the experimental values for all frequent sequences and the predicted values for all others (Table 1; experimental values are in bold). Predicted values were calculated on the basis of additivity of residues in the Xaa1 and Xaa2 position (Persikov, et al. (2002) supra; Equation 1). Tm^GX^1^X^2=Tm^GX^1^O+Tm^GPX^2−Tm^GPO (1)
The predicted values gave good agreement (within ±3° C.) for the Gly-Ala-Ala and for 28 other guest triplets of the 41 Gly-Xaa1-Xaa2 triplets studied in host-guest collagen-like peptides. […] Observed Tm values of Gly-Xaa1-Arg sequences (Gly-Glu-Arg, Gly-Ala-Arg, Gly-Lys-Arg, Gly-Gln-Arg, and Gly-Asp-Arg) were 2.5° C. smaller on average than predicted, indicating the need for a correction factor in a Gly-Xaa1-Arg context versus a Gly-Pro-Arg context.
Interactions between adjacent Gly-Xaa1-Xaa2 tripeptides were included in the calculations. One study reported stabilities of a selection of host-guest peptides including residues in two adjacent tripeptide units, Gly-Xaa1-Xaa2-Gly-Xaa1′-Xaa2′, covering possible direct interchain or intrachain interactions between residues that are separated by ≦3 residues in sequence (Persikov, et al. (2005) supra) (FIG. 1).

| Compound | ΔTm [1] [°C] | Tm^obs [2] [°C] | experimentally observed Tm of Gly-Xaa1-Xaa2 tripeptide unit in a triple helix ([2]; host-guest peptide, (Gly-Pro-Hyp)8 host, c=1 mg/ml in phosphate-buffered saline, pH 7.0, heating rate 0.1° C./minute) [°C] | deviation of observed Tm from predicted Tm of guest triplet [3] [°C] |
| --- | --- | --- | --- | --- |
| CC(=O)NCC(=O)N1CCC[C@H]1C(=O)N1C[C@H](O)C[C@H]1C(=O)NCC(=O)N1CCC[C@H]1C(=O)N1C[C@H](O)C[C@H]1C(=O)NCC(=O)N1CCC[C@H]1C(=O)N1C[C@H](O)C[C@H]1C(=O)NCC(=O)N[C@@H](C)C(=O)N[C@@H](CCCCN)C(=O)NCC(=O)N[C@@H](CC(=O)O)C(=O)N[C@@H](C)C(=O)NCC(=O)N1CCC[C@H]1C(=O)N1C[C@H](O)C[C@H]1C(=O)NCC(=O)N1CCC[C@H]1C(=O)N[C@@H](C)C(=O)NCC(=O)N1CCC[C@H]1C(=O)N1C[C@H](O)C[C@H]1C(=O)NCC(=O)N1CCC[C@H]1C(=O)N1C[C@H](O)C[C@H]1C(=O)NCC(=O)N1CCC[C@H]1C(=O)N1C[C@H](O)C[C@H]1C(=O)NCC(=O)N[C@@H](Cc1ccc(O)cc1)C(N)=O [T1-655, Ac-(GPO)3-GAK-GDA-GPO-GPA-(GPO)3-GY-NH2] (Ac-GP[Hyp]GP[Hyp]GP[Hyp]GAKGDAGP[Hyp]GPAGP[Hyp]GP[Hyp]GP[Hyp]GY-NH2) | 0.1 | 42.8 | – | – |
| CC(=O)NCC(=O)N1CCC[C@H]1C(=O)N[C@@H](C)C(=O)NCC(=O)N1CCC[C@H]1C(=O)N[C@@H](C)C(=O)NCC(=O)N1CCC[C@H]1C(=O)N[C@H](C(=O)NCC(=O)N1CCC[C@H]1C(=O)N[C@@H](C)C(=O)NCC(=O)N[C@@H](C)C(=O)N[C@@H](CCCNC(=N)N)C(=O)NCC(=O)N1CCC[C@H]1C(=O)N[C@@H](C)C(=O)NCC(=O)N1CCC[C@H]1C(=O)N1C[C@H](O)C[C@H]1C(=O)NCC(=O)N1CCC[C@H]1C(=O)N[C@@H](C)C(=O)NCC(=O)N1CCC[C@H]1C(=O)N1C[C@H](O)C[C@H]1C(=O)NCC(=O)N1CCC[C@H]1C(=O)N1C[C@H](O)C[C@H]1C(=O)NCC(=O)N[C@H](C(N)=O)C(C)C)C(C)C [T1-892 (O24A), Ac-(GPA)2-GPV-GPA-GAR-GPA-GPO-GPA-(GPO)2-GV-NH2] (Ac-GPAGPAGPVGPAGARGPAGP[Hyp]GPAGP[Hyp]GP[Hyp]GV-NH2) | 1.4 | 23.2 | – | – |
| CC(=O)NCC(=O)N1CCC[C@H]1C(=O)N[C@@H](C)C(=O)NCC(=O)N1CCC[C@H]1C(=O)N[C@@H](C)C(=O)NCC(=O)N1CCC[C@H]1C(=O)N[C@H](C(=O)NCC(=O)N1CCC[C@H]1C(=O)N[C@@H](C)C(=O)NCC(=O)N[C@@H](C)C(=O)N[C@@H](CCCNC(=N)N)C(=O)NCC(=O)N1CCC[C@H]1C(=O)N[C@@H](C)C(=O)NCC(=O)N1CCC[C@H]1C(=O)N1C[C@H](O)C[C@H]1C(=O)NCC(=O)N1CCC[C@H]1C(=O)N1C[C@H](O)C[C@H]1C(=O)NCC(=O)N[C@@H](C)C(=O)N1C[C@H](O)C[C@H]1C(=O)NCC(=O)N1CCC[C@H]1C(=O)N1C[C@H](O)C[C@H]1C(=O)NCC(=O)N[C@H](C(N)=O)C(C)C)C(C)C [T1-892 (P26A), Ac-(GPA)2-GPV-GPA-GAR-GPA-(GPO)2-GAO-GPO-GV-NH2] (Ac-GPAGPAGPVGPAGARGPAGP[Hyp]GP[Hyp]GA[Hyp]GP[Hyp]GV-NH2) | 1.5 | 24.1 | – | – |
| GPS-GPR-GLO-GPO-GAO-GPQ-GFQ-GPO-(GEO)2-GAS-GPM [α1CB2] | 3.4 | 12 | – | – |
| Gly-Ala-Ala | – | – | 32.9 | ≤ 3 |

More lines, now with the values ahead:

| ΔTm [1] [°C] | Tm^obs [2] [°C] | experimentally observed Tm of Gly-Xaa1-Xaa2 tripeptide unit in a triple helix ([2]; host-guest peptide, (Gly-Pro-Hyp)8 host, c=1 mg/ml in phosphate-buffered saline, pH 7.0, heating rate 0.1° C./minute) [°C] | deviation of observed Tm from predicted Tm of guest triplet [3] [°C] | Compound |
| --- | --- | --- | --- | --- |
| −3.2 | 20.6 | – | – | CC(C)[C@H](NC(=O)[C@@H]1CCCN1C(=O)CNC(=O)[C@H](C)NC(=O)[C@@H]1CCCN1C(=O)CNC(=O)[C@H](C)NC(=O)[C@@H]1CCCN1C(=O)CN)C(=O)NCC(=O)N1CCC[C@H]1C(=O)N[C@@H](C)C(=O)NCC(=O)N[C@@H](C)C(=O)N[C@@H](CCCNC(=N)N)C(=O)NCC(=O)N1CCC[C@H]1C(=O)N[C@@H](C)C(=O)NCC(=O)N1CCC[C@H]1C(=O)N1C[C@H](O)C[C@H]1C(=O)NCC(=O)N1CCC[C@H]1C(=O)N1C[C@H](O)C[C@H]1C(=O)NCC(=O)N1CCC[C@H]1C(=O)N1C[C@H](O)C[C@H]1C(=O)NCC(=O)N1CCC[C@H]1C(=O)N1C[C@H](O)C[C@H]1C(=O)NCC(=O)N[C@@H](Cc1ccc(O)cc1)C(=O)O [T1-892 unbl, GPA-GPA-GPV-GPA-GAR-GPA-(GPO)4-GY] (H-GPAGPAGPVGPAGARGPAGP[Hyp]GP[Hyp]GP[Hyp]GP[Hyp]GY-OH) |
| −2.2 | 26.0 | – | – | CC(=O)NCC(=O)N1CCC[C@H]1C(=O)N[C@@H](C)C(=O)NCC(=O)N1CCC[C@H]1C(=O)N[C@@H](C)C(=O)NCC(=O)N1CCC[C@H]1C(=O)N[C@H](C(=O)NCC(=O)N1CCC[C@H]1C(=O)N[C@@H](C)C(=O)NCC(=O)N[C@@H](C)C(=O)N[C@@H](CCCNC(=N)N)C(=O)NCC(=O)N1CCC[C@H]1C(=O)N[C@@H](C)C(=O)NCC(=O)N1CCC[C@H]1C(=O)N1C[C@H](O)C[C@H]1C(=O)NCC(=O)N1CCC[C@H]1C(=O)N1C[C@H](O)C[C@H]1C(=O)NCC(=O)N1CCC[C@H]1C(=O)N1C[C@H](O)C[C@H]1C(=O)NCC(=O)N1CCC[C@H]1C(=O)N1C[C@H](O)C[C@H]1C(=O)NCC(=O)N[C@H](C(N)=O)C(C)C)C(C)C [T1-892, Ac-GPA-GPA-GPV-GPA-GAR-GPA-(GPO)4-GV-NH2] (Ac-GPAGPAGPVGPAGARGPAGP[Hyp]GP[Hyp]GP[Hyp]GP[Hyp]GV-NH2) |
| 3.9 | 25.0 | – | – | CC(=O)NCC(=O)N[C@@H](CO)C(=O)N1C[C@H](O)C[C@H]1C(=O)NCC(=O)N[C@@H](C)C(=O)N[C@@H](CCC(N)=O)C(=O)NCC(=O)N[C@@H](CC(C)C)C(=O)N[C@@H](CCC(N)=O)C(=O)NCC(=O)N1CCC[C@H]1C(=O)N[C@@H](CCCNC(=N)N)C(=O)NCC(=O)N[C@@H](CC(C)C)C(=O)N1C[C@H](O)C[C@H]1C(=O)NCC(=O)N[C@H](C(=O)N1C[C@H](O)C[C@H]1C(=O)NCC(=O)N1CCC[C@H]1C(=O)N1C[C@H](O)C[C@H]1C(=O)NCC(=O)N1CCC[C@H]1C(=O)N1C[C@H](O)C[C@H]1C(=O)NCC(=O)N1CCC[C@H]1C(=O)N1C[C@H](O)C[C@H]1C(=O)NCC(=O)N1CCC[C@H]1C(=O)N1C[C@H](O)C[C@H]1C(=O)NCC(=O)N[C@H](C(=O)O)C(C)C)[C@@H](C)O [T2-508, Ac-GSO-GAQ-GLQ-GPR-GLO-GTO-(GPO)4-GV-OH] (Ac-GS[Hyp]GAQGLQGPRGL[Hyp]GT[Hyp]GP[Hyp]GP[Hyp]GP[Hyp]GP[Hyp]GV-OH) |
| 0.9 | 18.0 | – | – | CC[C@H](C)[C@H](NC(=O)CNC(=O)[C@@H]1C[C@@H](O)CN1C(=O)[C@@H]1CCCN1C(=O)CNC(=O)[C@@H]1C[C@@H](O)CN1C(=O)[C@@H]1CCCN1C(=O)CNC(=O)[C@@H]1C[C@@H](O)CN1C(=O)[C@@H]1CCCN1)C(=O)N[C@H](C(=O)NCC(=O)N[C@@H](C)C(=O)N[C@@H](CCCNC(=N)N)C(=O)NCC(=O)N[C@@H](CC(C)C)C(=O)N[C@@H](C)C(=O)NCC(=O)N1CCC[C@H]1C(=O)N1C[C@H](O)C[C@H]1C(=O)NCC(=O)N1CCC[C@H]1C(=O)N1C[C@H](O)C[C@H]1C(=O)NCC(=O)N1CCC[C@H]1C(=O)N1C[C@H](O)C[C@H]1C(=O)NCC(=O)N1CCC[C@H]1C(=O)N1C[C@H](O)C[C@H]1C(=O)NCC(=O)O)[C@@H](C)O [T3-785, PO-(GPO)2-GIT-GAR-GLA-(GPO)4-G] (H-P[Hyp]GP[Hyp]GP[Hyp]GITGARGLAGP[Hyp]GP[Hyp]GP[Hyp]GP[Hyp]G-OH) |
| 2.1 | 25.4 | – | – | CC[C@H](C)[C@H](NC(=O)CNC(=O)[C@@H]1C[C@@H](O)CN1C(=O)[C@H](CCCCN)NC(=O)CNC(=O)[C@@H]1C[C@@H](O)CN1C(=O)[C@H](CCC(=O)O)NC(=O)CNC(=O)[C@H](C)NC(=O)[C@H](CC(C)C)NC(=O)CNC(C)=O)C(=O)N1C[C@H](O)C[C@H]1C(=O)NCC(=O)N[C@@H](CC(C)C)C(=O)N1C[C@H](O)C[C@H]1C(=O)NCC(=O)N[C@@H](CCCNC(=N)N)C(=O)N[C@@H](C)C(=O)NCC(=O)N1CCC[C@H]1C(=O)N1C[C@H](O)C[C@H]1C(=O)NCC(=O)N1CCC[C@H]1C(=O)N1C[C@H](O)C[C@H]1C(=O)NCC(=O)N1CCC[C@H]1C(=O)N1C[C@H](O)C[C@H]1C(=O)NCC(=O)N1CCC[C@H]1C(=O)N1C[C@H](O)C[C@H]1C(=O)NCC(=O)N[C@H](C(N)=O)C(C)C [T7-2031, Ac-GLA-GEO-GKO-GIO-GLO-GRA-(GPO)4-GV-NH2] (Ac-GLAGE[Hyp]GK[Hyp]GI[Hyp]GL[Hyp]GRAGP[Hyp]GP[Hyp]GP[Hyp]GP[Hyp]GV-NH2) |
